Data on 1 compound can be found in patent publication US9879059B2, “Tailoring multivalent interactions of biopolymers with a polyproline scaffold” (Agency for Science, Technology and Research, priority 2013, dated 2018).

The subject of one assay is PC12 cells. Here is the method: Rat pheochromocytoma (PC12) cells were maintained in T75 tissue culture flask in complete RPMI 1640 growth medium containing 10% heat-inactivated horse serum (HI-HS), 5% fetal bovine serum (FBS) and 1% penicillin/streptomycin. Stock cultures from liquid nitrogen were grown at 37° C. with 5% CO2 in a humidified chamber for 72 hr before experiments.
13 mm glass coverslips were submerged in 65% nitric acid for at least three days. The coverslips were washed with distilled water, 70% ethanol and 100% ethanol 3× each for 30 minutes with gentle rocking. The coverslips were dried in the cell culture hood overnight with UV sterilization. For coating, 60 μl of laminin solution (25 μg/ml in sterile PBS) was added to each coverslip, followed by 2 hr incubation at 37° C. The coverslips were rinsed 3× with PBS and dried in the hood before use.
PC12 cells were seeded on laminin-coated coverslips at a density of 100 cells/mm^2 in RPMI 1640 differentiation medium containing 1% HI-HS. Cells were allowed to attach to the surface for 1 hr at 37° C. The coverslips were transferred to 24-well plates and the cells were incubated with fresh differentiation medium for 1 hr. Glycopeptides were incubated with NGF in differentiation medium for 1 hr at room temperature before adding to the cells together. At the end of culture period, the cells were fixed with 4% formaldehyde solution for 15 minutes at room temperature and rinsed 2× with PBS. All experiments were repeated three times and done in duplicate each time. For each treatment, 400-500 randomly selected single cells were counted. The percentage of neurite-bearing cells was determined by counting the number of cells with neurite length at least one cell body long.

Assay [1] addresses nerve growth factor (NGF) (Homo sapiens, UniProt P01138). As to the kind of experiment: ELISA of NGF binding to immobilized biotinylated glycopeptides. Particulars: relative to glycopeptide 1.
Experimental: The new plate was rinsed three times with PBS containing 0.05% Tween 20 and one time with PBS before the experiment. 100 μL of biotinylated glycopeptide solutions (0.5 μM) were added to required wells in the Pierce Streptavidin Coated High Binding Capacity plates (#15501), and incubated overnight at room temperature. After immobilization of glycopeptides, the plates were rinsed three times with PBS containing 0.05% Tween 20 and one time with PBS. The surface was then blocked with 125 μL of 3% BSA in PBS for 1 hr, followed by rinsing three times with PBS containing 0.05% Tween 20 and one time with PBS. 100 μL of varying concentrations (0 nM, 10 nM, 20 nM, 30 nM, 40 nM, 50 nM and 60 nM) of NGF in PBS containing 1% BSA was added to the wells and incubated for 2 hrs at 37° C. […]
The wells were then incubated with anti-NGF labeled with HRP in PBS containing 1% BSA. Absorbance signal was then developed with 100 μL of TMB Substrate from Thermo Scientific Pierce (#0034021) for 20 to 30 min before quenching with 100 μL of 2M H2SO4. Absorbance at 450 nm was then measured.
To evaluate the ability of the glycopeptides to interact with protein receptors, the binding affinity of each agent with nerve growth factor (NGF), which is known to bind CS-E sulfation motif selectively,^[9] was examined by ELISA. […] The amount of glycopeptide-bound NGF was measured by HRP-conjugated polyclonal NGF antibody.
Another assay concerns TrkA. To be noted: 10 μM glycopeptide 1 hr, NGF 4 ng/ml 5 minutes, ratio phospho-TrkA to total TrkA.
In a further assay the target is NGF (Homo sapiens, UniProt P01138). Here is the method:
Affinity measurements were performed using a Biacore T100 system (GE Heathcare). The CM5 sensor chip was used for all measurements. At first, the instrument was primed with HBS-EP+ (GE Heathcare) buffer. Then, 700RU of streptavidin was immobilized on all flow cells. A 1:1 mixture of 0.4 M EDC and 0.1 M NHS was used to activate the flow cells, and 0.008 mg/mL streptavidin solution reconstituted in Acetate 5.0 buffer (GE Healthcare) was injected. Blocking of the remaining activated groups was done with a 1 M solution of ethanolamine (pH 8.5). Flow cell 1 (or 3) was used as a reference to subtract nonspecific binding, drift, and the bulk refractive index, while flow cell 2 (or 4) was further immobilized with glycol-peptide samples of varying structures. Biotinylated glycopeptides (20 nM) were dissolved in HBS-EP+ buffer and were injected to flow cell 2 (or 4) at 30 μL/min until the baseline response increased by 104 or 127 RU. The instrument was then primed using running buffer (HBS-EP+). NGF was dissolved in HBS-EP+ buffer to produce a 185 nM stock solution, which was serially diluted to produce a concentration series down to 11 nM. […] Flow cells were regenerated by 2.5 M MgCl2 at 30 μL/min for 30 seconds after injection of each protein solutions.
Surface plasmon resonance (SPR) technology was further employed to facilitate quantitative, real-time kinetic analysis of glycopeptide-NGF interaction. Streptavidin was coated on a carboxydextran CM5 sensor chip, using EDC/NHS coupling chemistry, at a relatively low density (≈700 RU) to prevent nonspecific interactions with NGF. Biotinylated glycopeptides were then immobilized on streptavidin-coated surface at normalized levels by molecular weights,^[12] […] Kinetics were monitored at 25° C. by injecting various concentrations of NGF (11-185 nM) over the surface for 240 s at 50 μL·min^−1 and recording the dissociation for 800 s before the surface was regenerated with 2.5 M solution of MgCl2. […] Further kinetic analysis was conducted using a two-state binding model for comprehensive understanding of this binding event.

Setting [2] is: two-state kinetic model, 25° C., NGF 11-185 nM.

Sequence of NGF (P01138 122-241, species assumed): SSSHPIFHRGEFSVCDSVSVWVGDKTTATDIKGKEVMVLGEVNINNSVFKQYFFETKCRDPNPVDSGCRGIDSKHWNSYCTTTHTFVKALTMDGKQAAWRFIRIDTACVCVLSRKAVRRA
Sequence of nerve growth factor (NGF) (P01138 122-241, species assumed): as above
Experimental for TrkA: PC12 cells were seeded on laminin-coated coverslips at a density of 300 cells/mm^2 and one coverslip was used for each treatment (˜40,000 cells in total). Cells were starved in differentiation medium for 12-18 hr before use. For glycopeptide treatment, cells were incubated with fresh differentiation medium containing 10 μM glycopeptide for 1 hr at 37° C. To induce TrkA phosphorylation, cells were treated with NGF at a final concentration of 4 ng/ml for 5 minutes at 37° C. Cells were washed with ice cold PBS and lysed using RIPA lysis buffer containing protease and phosphatase inhibitors. The protein samples were separated on 4-12% SDS-PAGE gel and transferred to nitrocellulose membrane. Membranes were blocked for 1 h at room temperature and probed with anti-TrkA Ab (1:1500) and anti-pTrkA Ab (1:1500) overnight at 4° C., followed by 2 hr incubation with horseradish peroxidase-conjugated secondary antibodies. Enhanced chemiluminescence system was used for detection. The bands were quantified using the ImageJ program and the ratio of phosphor-TrkA to total TrkA was calculated and expressed as arbitrary units (a.u.).

As to `COC(=O)[C@@H]1C[C@@H](n2cc(CO[C@@H]3O[C@H](COS(=O)(=O)O)[C@H](OS(=O)(=O)O)[C@H](O[C@@H]4O[C@H](C(=O)O)[C@@H](O)[C@H](O)[C@H]4O)[C@H]3NC(C)=O)nn2)CN1C(=O)[C@@H]1CCCN1C(=O)[C@@H]1CCCN1C(=O)[C@@H]1C[C@@H](n2cc(CO[C@@H]3O[C@H](COS(=O)(=O)O)[C@H](OS(=O)(=O)O)[C@H](O[C@@H]4O[C@H](C(=O)O)[C@@H](O)[C@H](O)[C@H]4O)[C@H]3NC(C)=O)nn2)CN1C(=O)[C@@H]1CCCN1C(=O)[C@@H]1CCCN1C(=O)[C@@H]1C[C@@H](n2cc(CO[C@@H]3O[C@H](COS(=O)(=O)O)[C@H](OS(=O)(=O)O)[C@H](O[C@@H]4O[C@H](C(=O)O)[C@@H](O)[C@H](O)[C@H]4O)[C@H]3NC(C)=O)nn2)CN1C(=O)[C@@H]1CCCN1C(=O)[C@@H]1CCCN1C(=O)[C@@H]1C[C@@H](n2cc(CO[C@@H]3O[C@H](COS(=O)(=O)O)[C@H](OS(=O)(=O)O)[C@H](O[C@@H]4O[C@H](C(=O)O)[C@@H](O)[C@H](O)[C@H]4O)[C@H]3NC(C)=O)nn2)CN1C(=O)[C@@H]1CCCN1C(=O)[C@@H]1CCCN1C(=O)[C@@H]1C[C@@H](n2cc(CO[C@@H]3O[C@H](COS(=O)(=O)O)[C@H](OS(=O)(=O)O)[C@H](O[C@@H]4O[C@H](C(=O)O)[C@@H](O)[C@H](O)[C@H]4O)[C@H]3NC(C)=O)nn2)CN1C(=O)[C@@H]1CCCN1C(=O)[C@@H]1CCCN1C(=O)[C@@H]1C[C@@H](n2cc(CO[C@@H]3O[C@H](COS(=O)(=O)O)[C@H](OS(=O)(=O)O)[C@H](O[C@@H]4O[C@H](C(=O)O)[C@@H](O)[C@H](O)[C@H]4O)[C@H]3NC(C)=O)nn2)CN1C(=O)[C@@H]1CCCN1C(=O)[C@@H]1CCCN1C(=O)[C@@H]1C[C@@H](n2cc(CO[C@@H]3O[C@H](COS(=O)(=O)O)[C@H](OS(=O)(=O)O)[C@H](O[C@@H]4O[C@H](C(=O)O)[C@@H](O)[C@H](O)[C@H]4O)[C@H]3NC(C)=O)nn2)CN1C(=O)[C@@H]1CCCN1C(=O)[C@@H]1CCCN1C(=O)[C@@H]1C[C@@H](n2cc(CO[C@@H]3O[C@H](COS(=O)(=O)O)[C@H](OS(=O)(=O)O)[C@H](O[C@@H]4O[C@H](C(=O)O)[C@@H](O)[C@H](O)[C@H]4O)[C@H]3NC(C)=O)nn2)CN1C(=O)[C@@H]1CCCN1C(=O)[C@@H]1CCCN1C(=O)[C@@H]1C[C@@H](n2cc(CO[C@@H]3O[C@H](COS(=O)(=O)O)[C@H](OS(=O)(=O)O)[C@H](O[C@@H]4O[C@H](C(=O)O)[C@@H](O)[C@H](O)[C@H]4O)[C@H]3NC(C)=O)nn2)CN1C(=O)[C@@H]1CCCN1C(=O)[C@@H]1CCCN1C(=O)[C@@H]1C[C@@H](n2cc(CO[C@@H]3O[C@H](COS(=O)(=O)O)[C@H](OS(=O)(=O)O)[C@H](O[C@@H]4O[C@H](C(=O)O)[C@@H](O)[C@H](O)[C@H]4O)[C@H]3NC(C)=O)nn2)CN1C(=O)[C@@H]1CCCN1C(=O)[C@@H]1CCCN1C(=O)[C@@H]1C[C@@H](n2cc(CO[C@@H]3O[C@H](COS(=O)(=O)O)[C@H](OS(=O)(=O)O)[C@H](O[C@@H]4O[C@H](C(=O)O)[C@@H](O)[C@H](O)[C@H]4O)[C@H]3NC(C)=O)nn2)CN1C(=O)[C@@H]1CCCN1C(=O)[C@@H]1CCCN1C(=O)[C@@H]1C[C@@H](n2cc(CO[C@@H]3O[C@H](COS(=O)(=O)O)[C@H](OS(=O)(=O)O)[C@H](O[C@@H]4O[C@H](C(=O)O)[C@@H](O)[C@H](O)[C@H]4O)[C@H]3NC(C)=O)nn2)CN1C(=O)[C@@H]1CCCN1C(=O)[C@@H]1CCCN1C(=O)CCOCCOCCOCCOCCOCCOCCOCCOCCOCCOCCOCCOCCNC(=O)CCCC[C@@H]1SC[C@@H]2NC(=O)N[C@@H]21` [Glycopeptide 5], in the assay on PC12 cells (4 ng/ml NGF and 10 μM glycopeptide 3 days, 2 ng/ml NGF and 6 μM glycopeptide 5 days, result in words), the “percentage of neurite-bearing cells” value is on record as “greatly increased”. In the assay with PC12 cells (NGF 4 ng/ml, glycopeptide 10 μM, 72 hr, compared to NGF-only control), the “effect on NGF-mediated neurite outgrowth” value is listed as “significantly promoted neurite outgrowth”. Moreover, the “PC12 cell morphology with glycopeptide only” value in the assay with PC12 cells (in the absence of NGF) was “remained round-shaped and undifferentiated”. The “increase in NGF binding affinity in comparison to 1 (ELISA)” value in assay [1] is reported as 4.6 fold. Moreover, the “increase of NGF-induced TrkA phosphorylation compared to control” value in the assay with TrkA is about 40%. Further, the “binds to NGF more strongly than agent 1 (comparison of KD values)” value on NGF (KD of 5 versus KD of 1) is “approximately 18 fold”. In addition, the “SPR overall response to NGF” value on NGF (compared with glycopeptide 1, result in words) was “higher overall responses”. Moreover, at NGF (setting [2]), the ka2 is recorded as 1.97 (±0.02) × 10^−3 M^−1s^−1, the kd1 is on record as 2.74 (±0.04) × 10^−2 s^−1 and the kd2 was 6.00 (±0.17) × 10^−4 s^−1. Further, at NGF (two-state kinetic model, 25° C., NGF 11-185 nM, standard errors in parentheses), the ka1 is 4.65 (±0.16) × 10^4 M^−1s^−1.
